Measurements published in patent US8748566B2, “Pharmacologically active antiviral peptides and methods of use” (priority 2000, dated 2014).

Key:
HSV-1 KOS = assay: Plaque reduction assay, HSV-1 KOS infection of Vero cell cultures; assay type: cell-based
Method: The procedures for growing Vero cells and preparing high titer stocks of HSV-1 KOS as described in (Grau et al., Invest. Ophthal. and Vis. Sci. 30: 2474 (1989)) were utilized. Vero cells were maintained in carbonate-buffered DMEM supplemented with 5% calf serum and 5% fetal bovine serum (regular medium). For some studies, cells were switched to serum-free DMEM buffered with 25 mM Hepes (pH 7.4) and allowed to adapt to that medium for 30 min prior to experimental treatments. Vero cells were seeded into wells (0.28 cm^2) of microtiter plates either at 3.5×10^4 cells/well for use 1 day later (8×10^4 cells/well) or at 1×10^4 cells/well for use 3 days later (2×10^5 cells/well).
Confluent Vero cell cultures in microtiter plates were infected for 1 hour at 37° C. in 40 μl of medium. Except where indicated, peptide treatments in 40 μl of medium lasted from 1 hour before through 1 hour after infection. At the end of the adsorption period, the cultures were re-fed with 100 μl of regular medium. Plaque formation was scored 2 days later and the number of plaques scored per well was normalized to the number counted in the absence of peptide. Using an ocular micrometer, plaque size ([…]) was determined by measuring the largest plaque diameter (L) and the diameter at a 90° angle to that (S). The size of each of the first 40 scored plaques was measured except when a plaque included less than 10 rounded cells or touched the side of the well.

Vero cells = assay: Trypan-blue exclusion assay (cytotoxicity); assay type: cell-based
Method: Uninfected Vero cells in serum-free or serum-supplemented DMEM where treated for 1 hour at 37° C. with antiviral peptide SEQ ID NO:1 or control peptide EBX (SEQ ID NO:17), rinsed with PBS, stained for […] at 23° C. with 0.4% trypan-blue in PBS, rinsed again with PBS and air dried.

Substance: H-RRKKAAVALLPAVLLALLAP-OH [EB]
- effect on plaque size (HSV-1 KOS; EB present before and during adsorption): no effect on plaque size
- fold lower concentration blocking infections compared to control peptide EBX (HSV-1 KOS; absence of serum (FIG. 1B)): 100 fold
- effect on plaque formation (HSV-1 KOS; peptide present during infection of Vero cells with HSV-1 KOS): blocking plaque formation
- fold lower concentration blocking infections compared to control peptide EBX (HSV-1 KOS; presence of serum (FIG. 1A)): 10 fold
- combined mean plaque size (HSV-1 KOS; transient treatments with 6 and 12 μM EB (up to 1 hour post-infection)): 68,000±11,000 μm^2
- cytotoxic concentrations relative to antiviral concentrations (Vero cells): 100 fold
